Experimental data taken from US11807835B2, “Detergent compositions containing a stabilized enzyme by phosphonates” (ECOLAB USA INC., priority 2016, dated 2023).

Key:
protease = assay: Protease activity retention in detergent use solution (4000 ppm, 5 GPG water; peptidyl substrate, glycine buffer pH 9.0); format: biochemical; settings: base formula; for Relative Protease Enzyme Activity: use solution at 120° F.
Procedure: (§1) The enzyme activities in the detergents with different phosphonate levels were tested at 4000 ppm in 5 grains per gallon (GPG) water at 120° F. with various time points collected up to 4 hours, after a use solution was generated from the detergent composition. During the tests, the samples at different time points were collected and immediately frozen in an acetone/dry ice bath and stored in −80° C. before the activity of the enzyme was evaluated. For the use of such an assay, t=0 min was the reference point for 100% enzyme activity.
(§2) Assays of enzyme activity in formulations (% retention) were conducted to simulate a presoak condition in a beaker using the chemistry, temperature, and pH conditions relevant to manual warewash or presoak applications. Enzyme activity is an indicator of the stability of the enzyme in the detergent, specifically in an aqueous use solution within a sump (which is under conditions of high pH, temperature and dilution).
The analysis by protease assay was conducted as follows. For the assays, a detergent composition was used to generate an aqueous use solution evaluated herein.
(§3) Enzyme activity under presoak or manual warewash conditions was traced quantitatively using a standard protease assay. Samples were prepared under bench top conditions, whereby the use solution from a detergent composition or detergent was obtained and maintained at a presoak or manual warewash temperature in a stirring water bath. After the time course for assessing enzyme stability is initiated, aliquots were taken at various time points and flash-frozen. A time=0 sample was prepared for each series by dissolving the detergent formulation at room temperature, mixing thoroughly, and flash freezing. Samples were thawed and diluted as necessary in an assay buffer usually for use in the protease assay. A glycine buffer at pH 9.0 is used here. The assay monitored the direct reaction of the protease on a small, commercially available peptidyl substrate, with liberation of the product providing correlation to the active enzyme content. The product was detected using a plate reader with an appreciable dynamic range (upper absorbance limit of the instrument >3.5). Enzyme activity levels were assessed relative to a calibration curve with average values for replicate tests used to map protease stability under presoak or manual warewash use conditions. Enzyme retention at each time point was calculated as the % enzyme activity relative to the time=0 sample.

lipase = assay: Lipase activity retention in detergent use solution (4000 ppm, 5 GPG water; p-nitrophenyl valerate, TRIS buffer pH 8.0); format: biochemical; settings: base formula
Procedure: as §1, with “activities in the detergents with different phosphonate levels were tested at 4000 ppm in 5 grains per gallon (GPG) water at 120° F. with various time points” left out
as §2, §3
The analysis by lipase and amylase assay was conducted similarly, except with a different substrate and buffers. For lipase activity, the substrate is p-nitrophenyl valerate, and for amylase, the substrate is an ethylidene substrate (EPS). The buffer used in lipase assay is TRIS (Tris(hydroxymethyl)aminomethane) buffer at pH 8.0, and in amylase assay HEPES (4-(2-hydroxyethyl)-1-piperazineethanesulfonic acid) buffer at pH 8.0.

## NCP(=O)(O)O [AMPA, Aminomethyl phosphonic acid]
protease; compared with ATMP, DGAP, PAPEMP, MEAP
  protease stability: improves protease stability, but to a lesser extent
protease; phosphonate 0.3 wt-%, lower half of Table 4A, time 5
  Relative Protease Enzyme Activity: 86.30%
protease; phosphonate 0.3 wt-%, lower half of Table 4A, time 20
  Relative Protease Enzyme Activity: 63.30%
protease; phosphonate 0.3 wt-%, lower half of Table 4A, time 90
  Relative Protease Enzyme Activity: 37.90%
protease; phosphonate 0.3 wt-%, lower half of Table 4A, time 120
  Relative Protease Enzyme Activity: 31.17%
protease; phosphonate 0.3 wt-%, lower half of Table 4A, time 150, unit not given
  Relative Protease Enzyme Activity: 28.70%
protease; phosphonate 0.3 wt-%, lower half of Table 4A, time 210
  Relative Protease Enzyme Activity: 22.72%
protease; phosphonate 0.3 wt-%, lower half of Table 4A, time '0'
  Relative Protease Enzyme Activity: 100.00%
protease; phosphonate 0.3 wt-%, lower half of Table 4A, time '40'
  Relative Protease Enzyme Activity: 51.37%
protease; phosphonate 0.3 wt-%, lower half of Table 4A, time 'Blank'
  Relative Protease Enzyme Activity: 85.83%
protease; phosphonate 0.3 wt-%, lower half of Table 4A, time row printed '10'
  Relative Protease Enzyme Activity: 78.58%
protease; phosphonate 0.3 wt-%, lower half of Table 4A, time row printed '60'
  Relative Protease Enzyme Activity: 44.31%
protease; phosphonate 0.3 wt-%, lower half of Table 4A, time row printed '180'
  Relative Protease Enzyme Activity: 25.64%
protease; phosphonate 0.6 wt-%, time 0 min
  Relative Protease Enzyme Activity: 100.00%
protease; phosphonate 0.6 wt-%, time 5 min
  Relative Protease Enzyme Activity: 109.27%
protease; phosphonate 0.6 wt-%, time 10 min
  Relative Protease Enzyme Activity: 94.52%
protease; phosphonate 0.6 wt-%, time 20 min
  Relative Protease Enzyme Activity: 84.97%
protease; phosphonate 0.6 wt-%, time 40 min
  Relative Protease Enzyme Activity: 77.92%
protease; phosphonate 0.6 wt-%, time 60 min
  Relative Protease Enzyme Activity: 75.86%
protease; phosphonate 0.6 wt-%, time 90 min
  Relative Protease Enzyme Activity: 62.50%
protease; phosphonate 0.6 wt-%, time 120 min
  Relative Protease Enzyme Activity: 54.43%
protease; phosphonate 0.6 wt-%, time 150 min
  Relative Protease Enzyme Activity: 51.19%
protease; phosphonate 0.6 wt-%, time 180 min
  Relative Protease Enzyme Activity: 47.47%
protease; phosphonate 0.6 wt-%, time 210 min
  Relative Protease Enzyme Activity: 43.42%
protease; phosphonate 0.6 wt-%, time 240 min
  Relative Protease Enzyme Activity: 40.00%
protease; phosphonate at 0.1% elemental phosphorus, time 0 min
  Relative Protease Enzyme Activity: 107.11%
protease; phosphonate at 0.1% elemental phosphorus, time 5 min
  Relative Protease Enzyme Activity: 100.00%
protease; phosphonate at 0.1% elemental phosphorus, time 10 min
  Relative Protease Enzyme Activity: 99.75%
protease; phosphonate at 0.1% elemental phosphorus, time 20 min
  Relative Protease Enzyme Activity: 84.62%
protease; phosphonate at 0.1% elemental phosphorus, time 40 min
  Relative Protease Enzyme Activity: 70.58%
protease; phosphonate at 0.1% elemental phosphorus, time 60 min
  Relative Protease Enzyme Activity: 62.19%
protease; phosphonate at 0.1% elemental phosphorus, time 90 min
  Relative Protease Enzyme Activity: 49.17%
protease; phosphonate at 0.1% elemental phosphorus, time 120 min
  Relative Protease Enzyme Activity: 43.34%
protease; phosphonate at 0.1% elemental phosphorus, time 150 min
  Relative Protease Enzyme Activity: 38.26%
protease; phosphonate at 0.1% elemental phosphorus, time 180 min
  Relative Protease Enzyme Activity: 34.55%
protease; phosphonate at 0.1% elemental phosphorus, time 210 min
  Relative Protease Enzyme Activity: 32.27%
protease; phosphonate at 0.1% elemental phosphorus, time 240 min
  Relative Protease Enzyme Activity: 28.25%
lipase; phosphonate 0.6 wt-%, use solution at 120º F., time 0 min
  Relative Lipase Enzyme Activity: 100.00%
lipase; phosphonate 0.6 wt-%, use solution at 120º F., time 5 min
  Relative Lipase Enzyme Activity: 80.17%
lipase; phosphonate 0.6 wt-%, use solution at 120º F., time 10 min
  Relative Lipase Enzyme Activity: 64.48%
lipase; phosphonate 0.6 wt-%, use solution at 120º F., time 20 min
  Relative Lipase Enzyme Activity: 49.45%
lipase; phosphonate 0.6 wt-%, use solution at 120º F., time 40 min
  Relative Lipase Enzyme Activity: 37.77%
lipase; phosphonate 0.6 wt-%, use solution at 120º F., time 60 min
  Relative Lipase Enzyme Activity: 26.82%
lipase; phosphonate 0.6 wt-%, use solution at 120º F., time 90 min
  Relative Lipase Enzyme Activity: 19.59%
lipase; phosphonate 0.6 wt-%, use solution at 120º F., time 120 min
  Relative Lipase Enzyme Activity: 15.84%
lipase; phosphonate 0.6 wt-%, use solution at 120º F., time 150 min
  Relative Lipase Enzyme Activity: 15.01%
lipase; phosphonate 0.6 wt-%, use solution at 120º F., time 180 min
  Relative Lipase Enzyme Activity: 13.23%
lipase; phosphonate 0.6 wt-%, use solution at 120º F., time 210 min
  Relative Lipase Enzyme Activity: 12.05%
lipase; phosphonate 0.6 wt-%, use solution at 120º F., time 240 min
  Relative Lipase Enzyme Activity: 11.16%
lipase; phosphonate at 0.1% elemental phosphorus, at 120º F. or at room temperature (as titled), time 0 min
  Relative Lipase Enzyme Activity: 100.00%
lipase; phosphonate at 0.1% elemental phosphorus, at 120º F. or at room temperature (as titled), time 5 min
  Relative Lipase Enzyme Activity: 79.03%
lipase; phosphonate at 0.1% elemental phosphorus, at 120º F. or at room temperature (as titled), time 10 min
  Relative Lipase Enzyme Activity: 77.51%
lipase; phosphonate at 0.1% elemental phosphorus, at 120º F. or at room temperature (as titled), time 20 min
  Relative Lipase Enzyme Activity: 62.55%
lipase; phosphonate at 0.1% elemental phosphorus, at 120º F. or at room temperature (as titled), time 40 min
  Relative Lipase Enzyme Activity: 53.26%
lipase; phosphonate at 0.1% elemental phosphorus, at 120º F. or at room temperature (as titled), time 60 min
  Relative Lipase Enzyme Activity: 44.19%
lipase; phosphonate at 0.1% elemental phosphorus, at 120º F. or at room temperature (as titled), time 90 min
  Relative Lipase Enzyme Activity: 33.99%
lipase; phosphonate at 0.1% elemental phosphorus, at 120º F. or at room temperature (as titled), time 120 min
  Relative Lipase Enzyme Activity: 28.67%
lipase; phosphonate at 0.1% elemental phosphorus, at 120º F. or at room temperature (as titled), time 150 min
  Relative Lipase Enzyme Activity: 23.85%
lipase; phosphonate at 0.1% elemental phosphorus, at 120º F. or at room temperature (as titled), time 180 min
  Relative Lipase Enzyme Activity: 16.98%
lipase; phosphonate at 0.1% elemental phosphorus, at 120º F. or at room temperature (as titled), time 210 min
  Relative Lipase Enzyme Activity: 17.74%
lipase; phosphonate at 0.1% elemental phosphorus, at 120º F. or at room temperature (as titled), time 240 min
  Relative Lipase Enzyme Activity: 16.10%
